{"source": "the supplement of paper PMC10307832", "test_in_all_cases": "relative viability (nuclei count vs DMSO), 5 days (fraction); higher = more cells survive", "key": {"[1]": {"tested_on": "A-427", "summary_of_the_method": "(§1)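 Each reported value is a median over duplicate plates. It expresses relative viability: treated-well nuclei count divided by vehicle-well nuclei count. Lung cancer cell lines in 1536-well plates were dosed by pin tool a day after seeding, alone with one drug or with a fixed anchor-drug dose plus five library-drug doses (not always all listed) in √10 steps, and nuclei were counted after 5 days.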"}, "[2]": {"tested_on": "ABC-1", "summary_of_the_method": "as §1"}, "[3]": {"tested_on": "COR-L23", "summary_of_the_method": "as §1"}, "[4]": {"tested_on": "ChaGo-K-1", "summary_of_the_method": "as §1"}, "[5]": {"tested_on": "EMC-BAC-2", "summary_of_the_method": "as §1"}, "[6]": {"tested_on": "HARA", "summary_of_the_method": "as §1"}, "[7]": {"tested_on": "HCC-15", "summary_of_the_method": "as §1"}, "[8]": {"tested_on": "HCC-366", "summary_of_the_method": "as §1"}, "[9]": {"tested_on": "HCC-78", "summary_of_the_method": "as §1"}, "[10]": {"tested_on": "LC-2-ad", "summary_of_the_method": "as §1"}, "[11]": {"tested_on": "LK-2", "summary_of_the_method": "as §1"}, "[12]": {"tested_on": "NCI-H1650", "summary_of_the_method": "as §1"}, "[13]": {"tested_on": "NCI-H1734", "summary_of_the_method": "as §1"}, "[14]": {"tested_on": "NCI-H1944", "summary_of_the_method": "as §1"}, "[15]": {"tested_on": "NCI-H1993", "summary_of_the_method": "as §1"}, "[16]": {"tested_on": "NCI-H2009", "summary_of_the_method": "as §1"}, "[17]": {"tested_on": "NCI-H2023", "summary_of_the_method": "as §1"}, "[18]": {"tested_on": "NCI-H2228", "summary_of_the_method": "as §1"}, "[19]": {"tested_on": "NCI-H23", "summary_of_the_method": "as §1"}, "[20]": {"tested_on": "NCI-H2405", "summary_of_the_method": "as §1"}, "[21]": {"tested_on": "NCI-H838", "summary_of_the_method": "as §1"}, "[22]": {"tested_on": "SK-LU-1", "summary_of_the_method": "as §1"}, "[23]": {"tested_on": "UMC-11", "summary_of_the_method": "as §1"}}}
{"smiles": "C[C@@H]1CN(CC(=O)Nc2ccc3c(c2)Cc2cccc(-c4cc(=O)cc(N5CCOCC5)o4)c2S3)C[C@H](C)O1", "note": "+ C[C@@H](Oc1cc(-c2cnn(C3CCNCC3)c2)cnc1N)c1c(Cl)ccc(F)c1Cl [Crizotinib] (partner 1 µM)", "values": [{"measurement": "relative viability", "setting": "[1]; first compound 0.04 µM", "result": 1.04}, {"measurement": "relative viability", "setting": "[1]; first compound 0.1265 µM", "result": 0.941}, {"measurement": "relative viability", "setting": "[1]; first compound 0.4 µM", "result": 0.827}, {"measurement": "relative viability", "setting": "[1]; first compound 4 µM", "result": 0.844}, {"measurement": "relative viability", "setting": "[2]; first compound 0.1265 µM", "result": 1.17}, {"measurement": "relative viability", "setting": "[2]; first compound 0.4 µM", "result": 1.15}, {"measurement": "relative viability", "setting": "[2]; first compound 4 µM", "result": 0.723}, {"measurement": "relative viability", "setting": "[3]; first compound 0.04 µM", "result": 0.678}, {"measurement": "relative viability", "setting": "[3]; first compound 0.1265 µM", "result": 0.625}, {"measurement": "relative viability", "setting": "[3]; first compound 0.4 µM", "result": 0.693}, {"measurement": "relative viability", "setting": "[3]; first compound 4 µM", "result": 0.516}, {"measurement": "relative viability", "setting": "[4]; first compound 0.1265 µM", "result": 1.09}, {"measurement": "relative viability", "setting": "[4]; first compound 0.4 µM", "result": 1.21}, {"measurement": "relative viability", "setting": "[4]; first compound 4 µM", "result": 1.13}, {"measurement": "relative viability", "setting": "[5]; first compound 0.04 µM", "result": 0.57}, {"measurement": "relative viability", "setting": "[5]; first compound 0.1265 µM", "result": 0.761}, {"measurement": "relative viability", "setting": "[5]; first compound 0.4 µM", "result": 0.75}, {"measurement": "relative viability", "setting": "[5]; first compound 4 µM", "result": 0.819}, {"measurement": "relative viability", "setting": "[6]; first compound 0.04 µM", "result": 0.697}, {"measurement": "relative viability", "setting": "[6]; first compound 0.1265 µM", "result": 0.96}, {"measurement": "relative viability", "setting": "[6]; first compound 0.4 µM", "result": 1.07}, {"measurement": "relative viability", "setting": "[6]; first compound 4 µM", "result": 0.988}, {"measurement": "relative viability", "setting": "[7]; first compound 0.04 µM", "result": 0.8}, {"measurement": "relative viability", "setting": "[7]; first compound 0.1265 µM", "result": 0.75}, {"measurement": "relative viability", "setting": "[7]; first compound 0.4 µM", "result": 0.831}, {"measurement": "relative viability", "setting": "[7]; first compound 4 µM", "result": 0.734}, {"measurement": "relative viability", "setting": "[8]; first compound 0.04 µM", "result": 0.5}, {"measurement": "relative viability", "setting": "[8]; first compound 0.1265 µM", "result": 0.532}, {"measurement": "relative viability", "setting": "[8]; first compound 0.4 µM", "result": 0.414}, {"measurement": "relative viability", "setting": "[8]; first compound 4 µM", "result": 0.414}, {"measurement": "relative viability", "setting": "[9]; first compound 0.04 µM", "result": 0.344}, {"measurement": "relative viability", "setting": "[9]; first compound 0.1265 µM", "result": 0.349}, {"measurement": "relative viability", "setting": "[9]; first compound 0.4 µM", "result": 0.308}, {"measurement": "relative viability", "setting": "[9]; first compound 4 µM", "result": 0.348}, {"measurement": "relative viability", "setting": "[10]; first compound 0.04 µM", "result": 0.386}, {"measurement": "relative viability", "setting": "[10]; first compound 0.1265 µM", "result": 0.455}, {"measurement": "relative viability", "setting": "[10]; first compound 0.4 µM", "result": 0.434}, {"measurement": "relative viability", "setting": "[10]; first compound 4 µM", "result": 0.43}, {"measurement": "relative viability", "setting": "[11]; first compound 0.1265 µM", "result": 0.198}, {"measurement": "relative viability", "setting": "[11]; first compound 0.4 µM", "result": 0.242}, {"measurement": "relative viability", "setting": "[11]; first compound 4 µM", "result": 0.191}, {"measurement": "relative viability", "setting": "[12]; first compound 0.04 µM", "result": 0.991}, {"measurement": "relative viability", "setting": "[12]; first compound 0.1265 µM", "result": 0.959}, {"measurement": "relative viability", "setting": "[12]; first compound 0.4 µM", "result": 1.1}, {"measurement": "relative viability", "setting": "[12]; first compound 4 µM", "result": 0.55}, {"measurement": "relative viability", "setting": "[13]; first compound 0.04 µM", "result": 0.762}, {"measurement": "relative viability", "setting": "[13]; first compound 0.1265 µM", "result": 0.651}, {"measurement": "relative viability", "setting": "[13]; first compound 0.4 µM", "result": 0.627}, {"measurement": "relative viability", "setting": "[13]; first compound 4 µM", "result": 0.663}, {"measurement": "relative viability", "setting": "[14]; first compound 0.1265 µM", "result": 1.09}, {"measurement": "relative viability", "setting": "[14]; first compound 0.4 µM", "result": 1.22}, {"measurement": "relative viability", "setting": "[14]; first compound 4 µM", "result": 1.16}, {"measurement": "relative viability", "setting": "[15]; first compound 0.04 µM", "result": 0.876}, {"measurement": "relative viability", "setting": "[15]; first compound 0.1265 µM", "result": 0.846}, {"measurement": "relative viability", "setting": "[15]; first compound 0.4 µM", "result": 0.661}, {"measurement": "relative viability", "setting": "[15]; first compound 4 µM", "result": 0.85}, {"measurement": "relative viability", "setting": "[16]; first compound 0.04 µM", "result": 1.05}, {"measurement": "relative viability", "setting": "[16]; first compound 0.1265 µM", "result": 1.03}, {"measurement": "relative viability", "setting": "[16]; first compound 0.4 µM", "result": 1.09}, {"measurement": "relative viability", "setting": "[16]; first compound 4 µM", "result": 0.769}, {"measurement": "relative viability", "setting": "[17]; first compound 0.04 µM", "result": 0.655}, {"measurement": "relative viability", "setting": "[17]; first compound 0.1265 µM", "result": 0.634}, {"measurement": "relative viability", "setting": "[17]; first compound 0.4 µM", "result": 0.664}, {"measurement": "relative viability", "setting": "[17]; first compound 4 µM", "result": 0.516}, {"measurement": "relative viability", "setting": "[18]; first compound 0.04 µM", "result": 0.568}, {"measurement": "relative viability", "setting": "[18]; first compound 0.1265 µM", "result": 0.394}, {"measurement": "relative viability", "setting": "[18]; first compound 0.4 µM", "result": 0.283}, {"measurement": "relative viability", "setting": "[18]; first compound 4 µM", "result": 0.341}, {"measurement": "relative viability", "setting": "[19]; first compound 0.04 µM", "result": 0.521}, {"measurement": "relative viability", "setting": "[19]; first compound 0.1265 µM", "result": 0.487}, {"measurement": "relative viability", "setting": "[19]; first compound 0.4 µM", "result": 0.369}, {"measurement": "relative viability", "setting": "[19]; first compound 4 µM", "result": 0.487}, {"measurement": "relative viability", "setting": "[20]; first compound 0.04 µM", "result": 0.754}, {"measurement": "relative viability", "setting": "[20]; first compound 0.1265 µM", "result": 0.855}, {"measurement": "relative viability", "setting": "[20]; first compound 0.4 µM", "result": 0.893}, {"measurement": "relative viability", "setting": "[20]; first compound 4 µM", "result": 0.8}, {"measurement": "relative viability", "setting": "[21]; first compound 0.04 µM", "result": 0.886}, {"measurement": "relative viability", "setting": "[21]; first compound 0.1265 µM", "result": 0.77}, {"measurement": "relative viability", "setting": "[21]; first compound 0.4 µM", "result": 0.755}, {"measurement": "relative viability", "setting": "[21]; first compound 4 µM", "result": 0.616}, {"measurement": "relative viability", "setting": "[22]; first compound 0.04 µM", "result": 1.08}, {"measurement": "relative viability", "setting": "[22]; first compound 0.1265 µM", "result": 0.905}, {"measurement": "relative viability", "setting": "[22]; first compound 0.4 µM", "result": 0.902}, {"measurement": "relative viability", "setting": "[22]; first compound 4 µM", "result": 0.605}, {"measurement": "relative viability", "setting": "[23]; first compound 0.04 µM", "result": 0.747}, {"measurement": "relative viability", "setting": "[23]; first compound 0.1265 µM", "result": 0.644}, {"measurement": "relative viability", "setting": "[23]; first compound 0.4 µM", "result": 0.613}, {"measurement": "relative viability", "setting": "[23]; first compound 4 µM", "result": 0.385}]}
